Test results taken from patent publication US20240327393A1 (SIRONAX LTD., priority 2021, published 2024).
Read-outs that look alike come from different tables or passages of the source.

System: HT-1080 (ATCC, CCL-121) cells
Assay: HT-1080 cell viability assay with ferroptosis inducer RSL3 (Cell Titer-Glo)
Format: cell-based
Conditions: HT-1080 cells treated with RSL3, 3-fold, 10-point dilution, 1.1 μM highest concentration, Table 3, read-out: EC50 (nM), ferroptosis inhibitory activity
Summary of the method: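 EC50 was derived by sigmoidal dose-response regression of CellTiter-Glo luminescence viability, expressed relative to untreated wells. Compounds were tested in a ten-point, threefold dilution series (highest 1.1 μM) in the presence of the ferroptosis inducer RSL3. HT-1080 cells had been seeded at 6000 per well and grown overnight first.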

| Structure (SMILES) | EC50 (Homo sapiens) [nM] | EC50 [nM] |
| --- | --- | --- |
| Cc1cc(N2CCC(C(F)(F)F)CC2)ccc1Nc1cc(C#N)c2c(c1)OCC(=O)N2 [Compound 468, 7-((2-methyl-4-(4-(trifluoromethyl)piperidin-1-yl)phenyl)amino)-3-oxo-3,4-dihydro-2H-benzo[b][1,4]oxazine-5-carbonitrile] | 0.1 to 100 | – |
| CN1C(=O)COc2cc(Nc3ccc(N4CCC(C(F)(F)F)CC4)cc3)c(N)cc21 [Compound 469, 6-amino-4-methyl-7-((4-(4-(trifluoromethyl)piperidin-1-yl)phenyl)amino)-2H-benzo[b][1,4]oxazin-3(4H)-one] | 0.1 to 100 | – |
| Cc1cc(N2CCCCC2)ccc1Nc1ccc2c(c1)OCC(=O)N2 [Compound 470, 7-((2-methyl-4-(piperidin-1-yl)phenyl)amino)-2H-benzo[b][1,4]oxazin-3(4H)-one] | 0.1 to 100 | – |
| CC[C@@H]1CN(c2ccc(Nc3ccc4c(c3)OCC(=O)N4)c(C)n2)C[C@@H](C)O1 [Compound 471, 7-((6-((2R,6R)-2-ethyl-6-methylmorpholino)-2-methylpyridin-3-yl)amino)-2H-benzo[b][1,4]oxazin-3(4H)-one] | 0.1 to 100 | – |
| CCC1Oc2cc(Nc3ccc(C4CCOCC4)cc3)ccc2N(C)C1=O (centres unmarked) [Compound 472, 2-ethyl-4-methyl-7-((4-(tetrahydro-2H-pyran-4-yl)phenyl)amino)-2H-benzo[b][1,4]oxazin-3(4H)-one] | 0.1 to 100 | – |
| Cc1cc(N2CCC(C(F)(F)F)CC2)ccc1Nc1cc(C)c2c(c1)OCC(=O)N2 [Compound 473, 5-methyl-7-((2-methyl-4-(4-(trifluoromethyl)piperidin-1-yl)phenyl)amino)-2H-benzo[b][1,4]oxazin-3(4H)-one] | 0.1 to 100 | – |
| O=C1COc2cc(Nc3ccc(N4CCC(C(F)(F)F)CC4)nc3)ccc2N1 [Compound 474, 7-((6-(4-(trifluoromethyl)piperidin-1-yl)pyridin-3-yl)amino)-2H-benzo[b][1,4]oxazin-3(4H)-one] | 0.1 to 100 | – |
| O=C1COc2cc(Nc3cnc(N4CCC(C(F)(F)F)CC4)nc3)ccc2N1 [Compound 475, 7-((2-(4-(trifluoromethyl)piperidin-1-yl)pyrimidin-5-yl)amino)-2H-benzo[b][1,4]oxazin-3(4H)-one] | 0.1 to 100 | – |
| O=C1COc2cc(Nc3ccc(N4CCC(C(F)(F)F)CC4)cn3)ccc2N1 [Compound 476] | 0.1 to 100 | – |
| Cc1cc(N2CCC(C(F)(F)F)CC2)ccc1Nc1cc2c(cc1C)N(C)C(=O)CO2 [Compound 477, 4,6-dimethyl-7-((2-methyl-4-(4-(trifluoromethyl)piperidin-1-yl)phenyl)amino)-2H-benzo[b][1,4]oxazin-3(4H)-one] | 0.1 to 100 | – |
| CC1CC(c2ccc(Nc3ccc4c(c3)OCC(=O)N4)cc2)CCO1 (centres unmarked) [Compound 479, 7-((4-(2-methyltetrahydro-2H-pyran-4-yl)phenyl)amino)-2H-benzo[b][1,4]oxazin-3(4H)-one] | 0.1 to 100 | – |
| Cc1cc(N2CCC(C(F)(F)F)CC2)ccc1Nc1cc(F)c2c(c1)OCC(=O)N2 [Compound 480, 5-fluoro-7-((2-methyl-4-(4-(trifluoromethyl)piperidin-1-yl)phenyl)amino)-2H-benzo[b][1,4]oxazin-3(4H)-one] | 0.1 to 100 | – |
| Cc1cc(Nc2cc(F)c3c(c2)OCC(=O)N3)ccc1N1CCC(C(F)(F)F)CC1 [Compound 481, 5-fluoro-7-((3-methyl-4-(4-(trifluoromethyl)piperidin-1-yl)phenyl)amino)-2H-benzo[b][1,4]oxazin-3(4H)-one] | 0.1 to 100 | – |
| Cc1cc(N2CCC(C(F)(F)F)CC2)ccc1Nc1ccc2c(c1)OC(C)C(=O)N2 (centres unmarked) [Compound 482, 2-methyl-7-((2-methyl-4-(4-(trifluoromethyl)piperidin-1-yl)phenyl)amino)-2H-benzo[b][1,4]oxazin-3(4H)-one] | 0.1 to 100 | – |
| CCC1Oc2cc(Nc3ccc(N4CCC(C(F)(F)F)CC4)cc3C)ccc2NC1=O (centres unmarked) [Compound 483, 2-ethyl-7-((2-methyl-4-(4-(trifluoromethyl)piperidin-1-yl)phenyl)amino)-2H-benzo[b][1,4]oxazin-3(4H)-one] | 0.1 to 100 | – |
| C[C@@H]1C[C@H](c2ccc(Nc3ccc4c(c3)OCC(=O)N4)cc2)CCO1 [Compound 484, 7-((4-((2R,4R)-2-methyltetrahydro-2H-pyran-4-yl)phenyl)amino)-2H-benzo[b][1,4]oxazin-3(4H)-one] | 0.1 to 100 | – |
| COc1cc(Nc2ccc3c(c2)OCC(=O)N3)ccc1N1CCC(C(F)(F)F)CC1 [Compound 485, 7-((3-methoxy-4-(4-(trifluoromethyl)piperidin-1-yl)phenyl)amino)-2H-benzo[b][1,4]oxazin-3(4H)-one] | 0.1 to 100 | – |
| O=C1COc2cc(Nc3ccc(N4CCC(C(F)(F)F)CC4)c(F)c3)ccc2N1 [Compound 486, 7-((3-fluoro-4-(4-(trifluoromethyl)piperidin-1-yl)phenyl)amino)-2H-benzo[b][1,4]oxazin-3(4H)-one] | 0.1 to 100 | – |
| Cc1c(Nc2ccc3c(c2)OCC(=O)N3)ccc(N2CCC(C(F)(F)F)CC2)c1C [Compound 487, 7-((2,3-dimethyl-4-(4-(trifluoromethyl)piperidin-1-yl)phenyl)amino)-2H-benzo[b][1,4]oxazin-3(4H)-one] | 0.1 to 100 | – |

| Structure (SMILES) | EC50 (Homo sapiens) [nM] | EC50 [nM] |
| --- | --- | --- |
| Cc1cc(N2CCC(C(F)(F)F)CC2)c(F)cc1Nc1ccc2c(c1)OCC(=O)N2 [Compound 488, 7-((5-fluoro-2-methyl-4-(4-(trifluoromethyl)piperidin-1-yl)phenyl)amino)-2H-benzo[b][1,4]oxazin-3(4H)-one] | 0.1 to 100 | – |
| Cc1nc(N2CCC(C(F)(F)F)CC2)ccc1Nc1ccc2c(c1)OCC(=O)N2 [Compound 489, 7-((2-methyl-6-(4-(trifluoromethyl)piperidin-1-yl)pyridin-3-yl)amino)-2H-benzo[b][1,4]oxazin-3(4H)-one] | 0.1 to 100 | – |
| Cc1cc(N2CCC(C)CC2)ccc1Nc1ccc2c(c1)OCC(=O)N2C [Compound 490, 4-methyl-7-((2-methyl-4-(4-methylpiperidin-1-yl)phenyl)amino)-2H-benzo[b][1,4]oxazin-3(4H)-one] | 0.1 to 100 | – |
| Cc1cc(N2CCC(C)CC2)ccc1Nc1ccc2c(c1)OCC(=O)N2 [Compound 491, 7-((2-methyl-4-(4-methylpiperidin-1-yl)phenyl)amino)-2H-benzo[b][1,4]oxazin-3(4H)-one] | 0.1 to 100 | – |
| Cc1c(Nc2ccc3c(c2)OCC(=O)N3C)ccc(N2CCC(C(F)(F)F)CC2)c1C#N [Compound 492, 2-methyl-3-((4-methyl-3-oxo-3,4-dihydro-2H-benzo[b][1,4]oxazin-7-yl)amino)-6-(4-(trifluoromethyl)piperidin-1-yl)benzonitrile] | 0.1 to 100 | – |
| Cc1cc(N2C[C@@H](C)O[C@@H](C)C2)ccc1Nc1ccc2[nH]cnc2c1 [Compound 493, N-(4-((2R,6S)-2,6-dimethylmorpholino)-2-methylphenyl)-1H-benzo[d] imidazol-5-amine] | 0.1 to 100 | – |
| Cc1cc(N2C[C@@H](C)O[C@@H](C)C2)ccc1Nc1ccc2c(c1)CNC(=O)N2 [Compound 494, 6-((4-((2R,6S)-2,6-dimethylmorpholino)-2-methylphenyl)amino)-3,4-dihydroquinazolin-2(1H)-one] | 0.1 to 100 | – |
| CN1C(=O)COc2cc(Nc3ccc(N4CCC(C(F)(F)F)CC4)cc3)c(O)cc21 [Compound 495, 6-hydroxy-4-methyl-7-({4-[4-(trifluoromethyl)piperidin-1-yl]phenyl}amino)-2H-1,4-benzoxazin-3-one] | 0.1 to 100 | – |
| Cc1cc(N2CCC(C(F)(F)F)CC2)ccc1Nc1ccc2[nH]c(=O)oc2c1 [Compound 496, 6-((2-methyl-4-(4-(trifluoromethyl)piperidin-1-yl)phenyl)amino) benzo[d]oxazol-2(3H)-one] | 0.1 to 100 | – |
| Cc1cc(N2CCC(C(F)(F)F)CC2)ccc1Nc1ccc2[nH]ncc2c1 [Compound 497, N-(2-methyl-4-(4-(trifluoromethyl)piperidin-1-yl)phenyl)-1H-indazol-5-amine] | 0.1 to 100 | – |
| CCC1CN(c2ccc(Nc3ccc4c(c3)OCC(=O)N4)c(C)n2)CCO1 (centres unmarked) [Compound 498, 7-((6-(2-ethylmorpholino)-2-methylpyridin-3-yl)amino)-2H-benzo[b][1,4]oxazin-3(4H)-one] | 0.1 to 100 | – |
| CC[C@@H]1CN(c2ccc(Nc3ccc4c(c3)OCC(=O)N4)c(C)n2)C[C@H](CC)O1 [Compound 499, 7-((6-((2S,6R)-2,6-diethylmorpholino)-2-methylpyridin-3-yl)amino)-2H-benzo[b][1,4]oxazin-3(4H)-one] | 0.1 to 100 | – |
| Cc1nc(N2CCOC(C)(C)C2)ccc1Nc1ccc2c(c1)OCC(=O)N2 [Compound 500, 7-((6-(2,2-dimethylmorpholino)-2-methylpyridin-3-yl)amino)-2H-benzo[b][1,4]oxazin-3(4H)-one] | 0.1 to 100 | – |
| CCN(CC)c1ccc(Nc2ccc3c(c2)OCC(=O)N3)c(C)c1 [Compound 501, 7-((4-(diethylamino)-2-methylphenyl)amino)-2H-benzo[b][1,4]oxazin-3(4H)-one] | 0.1 to 100 | – |
| Cc1cc(N2CCC(C(F)(F)F)C2)ccc1Nc1ccc2c(c1)OCC(=O)N2 (centres unmarked) [Compound 502, 7-((2-methyl-4-(3-(trifluoromethyl)pyrrolidin-1-yl)phenyl)amino)-2H-benzo[b][1,4]oxazin-3(4H)-one] | – | 0.1 to 100 |
| COC1(C(F)(F)F)CCN(c2ccc(Nc3ccc4c(c3)OCC(=O)N4)c(C)n2)CC1 [Compound 503, 7-((6-(4-methoxy-4-(trifluoromethyl)piperidin-1-yl)-2-methylpyridin-3-yl)amino)-2H-benzo[b][1,4]oxazin-3(4H)-one] | 0.1 to 100 | – |
| Cc1nc(N2CC(C)(C)OC(C)(C)C2)ccc1Nc1ccc2c(c1)OCC(=O)N2 [Compound 504] | 0.1 to 100 | – |
| COCCOC1CCN(c2ccc(Nc3ccc4c(c3)OCC(=O)N4)c(C)c2)CC1 [Compound 505] | 0.1 to 100 | – |
| Cc1cc(N2CCCCC2)ccc1Nc1ccc2c(c1)OCC(=O)N2C [Compound 506] | 0.1 to 100 | – |
